Results from patent US20230026869A1, “CRYSTAL FORM OF NUCLEOPROTEIN INHIBITOR AND USE THEREOF” (CHIA TAI TIANQING PHARMACEUTICAL GROUP CO., LTD., priority 2019, published 2023).

What was measured:
HBV = experiment: qPCR assay for in vitro testing of HBV (HBV DNA content in HepG2.2.15 cells); format: cell-based; settings: Hepatitis B virus, 192 h, HBV DNA by qPCR, day 8, read-out: Concentration for 50% of maximal effect (EC50) of HBV
Protocol: HBV DNA content in HepG2.2.15 cells was detected by a real time-qPCR assay, and the inhibitory action of the compound on HBV was evaluated by taking the EC50 value of the compound as an index.
2.1. cell lines: HepG2.2.15 cells
3.1. HepG2.2.15 cells (4×10^4 cells/well) were plated in a 96-well plate and cultured overnight at 37° C. and 5% CO2.
3.2. On the next day, the compound was diluted for a total of 8 concentrations, with 3-fold gradient dilutions. The compound at different concentrations was added into the culture wells in duplicate. The final concentration of DMSO in the culture medium was 1%. 1 μM GLS4 served as 100% inhibition control (WO2008154817A1 discloses the structure of GLS4 as follows:
DMSO at 1% served as 0% inhibition control.
3.3. On the fifth day, the original culture medium was replaced with a fresh culture medium containing the compound.
3.4. On the eighth day, the culture medium in the culture wells was collected, and the high-throughput DNA purification kit (Qiagen-51162) was used to extract DNA. For specific steps, refer to the product manual.
3.6. 15 μL of the reaction mixture was added into each well of the 96-well PCR plate, and then 10 μL of sample DNA or HBV DNA standard was added into each well.
3.7. Reaction conditions for PCR were as follows: heating at 95° C. for 10 min; then denaturating at 95° C. for 15 s and extending at 60° C. for 1 min for 40 cycles.
3.8.1. […]

[1] = Liver-to-blood ratio in Balb/c mice orally administered with the test compound; format: in vivo; settings: Balb/c female mice, oral administration, 3 mg/kg
Protocol: Experiment on the Liver-to-Blood Ratio in Balb/c Mice Orally Administered with the Test Compound The compound of formula (I) was mixed with an aqueous solution containing […] polyethylene glycol-15 hydroxystearate, and the mixture was vortexed and sonicated to prepare a 0.3 mg/mL clear solution for later use. Balb/c female mice aged 7 to 10 weeks were orally administered with the candidate compound solution at a dose of 3 mg/kg. Whole blood at a certain time point was collected and plasma was prepared. Liver tissues at the corresponding time point were collected to prepare a tissue homogenate. Drug concentration was analyzed by LC-MS/MS and pharmacokinetic parameters were calculated with Phoenix WinNonlin software.

`CC1(NC(=O)C(=O)c2c(Cl)c(C(=O)Nc3cc(F)c(F)c(F)c3)c3n2CCC3)CCC(CC(=O)O)CC1` (stereo not shown) [Compound of formula (I)] showed an EC50 (HBV) of 4 nM, an AUC0-last ([1]; Liver) of 86036 nmol·h/kg and a Kp ([1]; mouse, liver / plasma, read-out: AUC ratio (L/P) Liver/plasma exposure ratio) of 24.7. The AUC(0-t) ([1]; mouse, Plasma) was 3.48 µM·h.
